Experimental data taken from ChEMBL document CHEMBL4602644, “Synthesis of PJOV56, a new quinoxalinyl-hydrazone derivative able to induce autophagy and apoptosis in colorectal cancer cells, and related compounds” (Bioorg Med Chem Lett, 2020).
Calls of active or inactive are those of the source. The calls are words filed in the database; no cut-off is given here.

What was measured:
HCT-116 [1] = test: Disruption of membrane integrity in human HCT116 cells assessed as increase in non-viable cells at 3 uM measured after 48 hrs by propidium iodide staining based flow cytometry relative to control; format: functional
HCT-116 [2] = test: Induction of apoptosis in human HCT116 cells assessed as late apoptotic cells at 6 uM measured after 48 hrs by annexinV-PE/7-AAD staining based flow cytometric analysis (reference value: 0.18 %); format: functional
HCT-116 [3] = test: Induction of apoptosis in human HCT116 cells assessed as late apoptotic cells at 6 uM measured after 48 hrs by annexin-V staining based flow cytometry (reference value: 0.34 %); format: functional
HL-60 = test: Cytotoxicity against human HL60 cells assessed as reduction in cell viability measured after 72 hrs by MTT assay; format: functional, cell-based; conditions: HL-60, 72 h
HCT-116 [4] = test: Induction of morphological changes in human HCT116 cells assessed as increase in size of intracellular vesicles at 1.5 to 6 uM measured after 48 hrs by propidium iodide staining based flow cytometry; format: functional, cell-based
HCT-116 [5] = test: Induction of apoptosis in human HCT116 cells assessed as early apoptotic cells at 1.5 uM measured after 48 hrs by annexinV-PE/7-AAD staining based flow cytometric analysis (reference value: 6.53 %); format: functional
HCT-116 [6] = test: Induction of autophagy in human HCT116 cells increase in Beclin 1 level at 3 uM measured after 48 hrs by Western blot analysis; format: functional, cell-based
MCF7 = test: Cytotoxicity against human MCF7 cells assessed as reduction in cell viability measured after 72 hrs by MTT assay; format: functional, cell-based; conditions: MCF7, 72 h
L929 = test: Cytotoxicity against mouse L929 cells assessed as reduction in cell viability measured after 72 hrs by MTT assay; format: cell-based; conditions: L929, 72 h
HCT-116 [7] = test: Induction of apoptosis in human HCT116 cells assessed as increase in caspase 7 expression at 3 to 6 uM measured after 48 hrs by Western blot analysis; format: functional, cell-based
HCT-116 [8] = test: Induction of morphological changes in human HCT116 cells assessed as increase in number of intracellular vesicles at 1.5 to 6 uM measured after 48 hrs by propidium iodide staining based flow cytometry; format: functional, cell-based
HCT-116 [9] = test: Induction of apoptosis in human HCT116 cells assessed as late apoptotic cells at 1.5 uM measured after 48 hrs by annexinV-PE/7-AAD staining based flow cytometric analysis (reference value: 0.18 %); format: functional
HCT-116 [10] = test: Induction of morphological changes in human HCT116 cells assessed as decrease in number of mitotic cells at 1.5 to 6 uM measured after 48 hrs by propidium iodide staining based flow cytometry; format: functional, cell-based
HCT-116 [11] = test: Induction of autophagy in human HCT116 cells increase in LC3A/B-II level at 3 to 6 uM measured after 48 hrs by Western blot analysis; format: functional, cell-based
HCT-116 [12] = test: Disruption of membrane integrity in human HCT116 cells assessed as decrease in viable cells at 3 uM measured after 48 hrs by propidium iodide staining based flow cytometry relative to control; format: functional
HCT-116 [13] = test: Induction of apoptosis in human HCT116 cells assessed as early apoptotic cells at 6 uM measured after 48 hrs by annexinV-PE/7-AAD staining based flow cytometric analysis (reference value: 6.53 %); format: functional
HCT-116 [14] = test: Cell cycle arrest in human HCT116 cells assessed as accumulation at S phase at 3 uM measured after 48 hrs by propidium iodide staining based flow cytometry (reference value: 33.29 %); format: functional
HCT-116 [15] = test: Induction of autophagy in human HCT116 cells assessed as formation of acidic vesicular organelles at 3 to 6 uM measured after 48 hrs by acridine orange staining based confocal microscopy; format: functional, cell-based
HCT-116 [16] = test: Cytotoxicity against human HCT116 cells assessed as reduction in cell viability measured after 48 hrs by MTT assay; format: functional, cell-based; conditions: HCT-116, 48 h
HCT-116 [17] = test: Disruption of membrane integrity in human HCT116 cells assessed as increase in non-viable cells at 6 uM measured after 48 hrs by propidium iodide staining based flow cytometry relative to control; format: functional
HCT-116 [18] = test: Induction of DNA fragmentation in human HCT116 cells at 6 uM measured after 48 hrs by propidium iodide staining based flow cytometry relative to control; format: functional
HCT-116 [19] = test: Cell cycle arrest in human HCT116 cells assessed as accumulation at G0/G1 phase at 6 uM measured after 48 hrs by propidium iodide staining based flow cytometry (reference value: 41.67 %); format: functional
HepG2 = test: Cytotoxicity against human HepG2 cells assessed as reduction in cell viability measured after 72 hrs by MTT assay; format: functional, cell-based; conditions: HepG2, 72 h
HCT-116 [20] = test: Induction of apoptosis in human HCT116 cells assessed as early apoptotic cells at 3 uM measured after 48 hrs by annexinV-PE/7-AAD staining based flow cytometric analysis (reference value: 6.53 %); format: functional
K562 = test: Cytotoxicity against human K562 cells assessed as reduction in cell viability measured after 72 hrs by MTT assay; format: functional, cell-based; conditions: K562, 72 h
HCT-116 [21] = test: Induction of apoptosis in human HCT116 cells assessed as live cells at 3 uM measured after 48 hrs by annexinV-PE/7-AAD staining based flow cytometric analysis (reference value: 91.42 %); format: functional
HCT-116 [22] = test: Cell cycle arrest in human HCT116 cells assessed as accumulation at G0/G1 phase at 1.5 uM measured after 48 hrs by propidium iodide staining based flow cytometry (reference value: 41.67 %); format: functional
HCT-116 [23] = test: Induction of apoptosis in human HCT116 cells assessed as necrotic cells at 6 uM measured after 48 hrs by annexinV-PE/7-AAD staining based flow cytometric analysis (reference value: 0.16 %); format: functional
HCT-116 [24] = test: Induction of apoptosis in human HCT116 cells assessed as late apoptotic cells at 3 uM measured after 48 hrs by annexinV-PE/7-AAD staining based flow cytometric analysis (reference value: 0.18 %); format: functional
HCT-116 [25] = test: Cell cycle arrest in human HCT116 cells assessed as accumulation at S phase at 1.5 uM measured after 48 hrs by propidium iodide staining based flow cytometry (reference value: 33.29 %); format: functional
HCT-116 [26] = test: Cytotoxicity against human HCT116 cells assessed as reduction in cell viability measured after 24 hrs by MTT assay; format: functional, cell-based; conditions: HCT-116, 24 h
HCT-116 [27] = test: Disruption of membrane integrity in human HCT116 cells at 1.5 to 3 uM measured after 48 hrs by propidium iodide staining based flow cytometry; format: functional, cell-based
HCT-116 [28] = test: Induction of apoptosis in human HCT116 cells assessed as necrotic cells at 1.5 uM measured after 48 hrs by annexinV-PE/7-AAD staining based flow cytometric analysis (reference value: 0.16 %); format: functional
HCT-116 [29] = test: Cell cycle arrest in human HCT116 cells assessed as accumulation at G2/M phase at 1.5 uM measured after 48 hrs by propidium iodide staining based flow cytometry (reference value: 24.98 %); format: functional
HCT-116 [30] = test: Induction of apoptosis in human HCT116 cells assessed as […] in cleaved caspase 7 expression at 3 to 6 uM measured after 48 hrs by Western blot analysis; format: functional, cell-based
HCT-116 [31] = test: Induction of apoptosis in human HCT116 cells assessed as live cells at 1.5 uM measured after 48 hrs by annexinV-PE/7-AAD staining based flow cytometric analysis (reference value: 91.42 %); format: functional

C(=N\Nc1cnc2ccccc2n1)/c1ccccn1
Activity (HCT-116 [1]): 9.46%
Activity (HCT-116 [2]): 17.9%
Activity (HCT-116 [3]): 25.6%
IC50 (HL-60): 0.82 µM
Activity (HCT-116 [4]): Active
Activity (HCT-116 [5]): 5.61%
Activity (HCT-116 [6]): Active
IC50 (MCF7): 7 µM
IC50 (L929): 2.27 µM
Activity (HCT-116 [7]): Active
Activity (HCT-116 [8]): Active
Activity (HCT-116 [9]): 1.14%
Activity (HCT-116 [10]): Active
Activity (HCT-116 [11]): Active
Activity (HCT-116 [12]): 90.45%
Activity (HCT-116 [13]): 8.28%
Activity (HCT-116 [14]): 55.35%
Activity (HCT-116 [15]): Active
IC50 (HCT-116 [16]): 3.04 µM
Activity (HCT-116 [17]): 31.36%
Activity (HCT-116 [18]): 3.89%
Activity (HCT-116 [19]): 64.85%
IC50 (HepG2): 7.35 µM
Activity (HCT-116 [20]): 5.18%
IC50 (K562): 2.62 µM
Activity (HCT-116 [21]): 90.36%
Activity (HCT-116 [22]): 35.69%
Activity (HCT-116 [23]): 7.49%
Activity (HCT-116 [24]): 2.55%
Activity (HCT-116 [25]): 34.31%
IC50 (HCT-116 [26]): > 20 µM
Activity (HCT-116 [27]): inactive
Activity (HCT-116 [28]): 0.63%
Activity (HCT-116 [29]): 29.99%
Activity (HCT-116 [30]): Active
Activity (HCT-116 [31]): 89.63%
